Experimental data published in patent US9113629B2, “4-amino-6-(4-substituted-phenyl)-picolinates and 6-amino-2-(4-substituted-phenyl)-pyrimidine-4-carboxylates and their use as herbicides” (DOW AGROSCIENCES LLC, priority 2013, dated 2015).
Where two headings read alike, the source gives them in different places.

Key:
[1] = system: Key Broadleaf Weed and Crop Species; assay: Post-emergent Test II herbicidal activity (Table 5); type: in vivo; conditions: post-emergence, 336 h, post-emergent, 14 days after application; for pest or weed control at 70 g/ha: 70 g ai/ha; for pest or weed control at 140 g/ha: 140 g ai/ha
Method in brief: (§1)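 Spray rates: a highest rate plus ½×, ¼×, ⅛×, 1/16×, all delivered at 187 L/ha to plants at the first–second true leaf stage. Readout is a visual percent injury score at 14 d, where 100 means complete kill.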

[2] = system: Key Grass and Sedge Weeds as well as Grass Crops; assay: Post-emergent Test II herbicidal activity (Table 6); type: in vivo; conditions: post-emergence, 336 h; for pest or weed control at 70 g/ha: application rate 70 g ai/ha; for pest or weed control at 140 g/ha: application rate 140 g ai/ha
Method in brief: as §1

[3] = ABUTH: velvetleaf (Abutilon theophrasti), read-out: Visual Growth Reduction (%) 14 Days After Application ABUTH
[4] = AMARE: redroot pigweed (Amaranthus retroflexus), read-out: Visual Growth Reduction (%) 14 Days After Application AMARE
[5] = BRSNN: oilseed-rape, canola (Brassica napus), read-out: Visual Growth Reduction (%) 14 Days After Application BRSNN
[6] = CHEAL: lambsquarters (Chenopodium album), read-out: Visual Growth Reduction (%) 14 Days After Application CHEAL
[7] = EPHHL: wild poinsettia (Euphorbia heterophylla), read-out: Visual Growth Reduction (%) 14 Days After Application EPHHL
[8] = HELAN: sunflower (Helianthus annuus), read-out: Visual Growth Reduction (%) 14 Days After Application HELAN
[9] = VIOTR: wild pansy (Viola tricolor), read-out: Visual Growth Reduction (%) 14 Days After Application VIOTR
[10] = CYPES: yellow nutsedge (Cyperus esculentus), read-out: Visual Growth Reduction (%) 14 Days After Application, CYPES
[11] = DIGSA: crabgrass (Digitaria sanguinalis), read-out: Visual Growth Reduction (%) 14 Days After Application, DIGSA
[12] = ECHCG: barnyardgrass (Echinochloa crus-galli), read-out: Visual Growth Reduction (%) 14 Days After Application, ECHCG
[13] = ORYSA: rice (Oryza sativa), read-out: Visual Growth Reduction (%) 14 Days After Application, ORYSA
[14] = SETFA: giant foxtail (Setaria faberi), read-out: Visual Growth Reduction (%) 14 Days After Application, SETFA
[15] = SORVU: grain sorghum (Sorghum vulgare), read-out: Visual Growth Reduction (%) 14 Days After Application, SORVU
[16] = TRZSS (wheat, Triticum aestivum), read-out: Visual Growth Reduction (%) 14 Days After Application, TRZSS
[17] = ZEAMX: maize, corn (Zea mays), read-out: Visual Growth Reduction (%) 14 Days After Application, ZEAMX

`COC(=O)c1nc(-c2cc(F)c(C(F)F)cc2F)cc(N)c1Cl` [Compound 205] gave a pest or weed control at 70 g/ha [1, 3] of 95 to 100%, a pest or weed control at 140 g/ha [1, 3] of 95 to 100% and a pest or weed control at 70 g/ha [1, 4] of 95 to 100%. The pest or weed control at 140 g/ha [1, 4] was 95 to 100%, the pest or weed control at 70 g/ha [1, 5] was 60 to 74% and the pest or weed control at 140 g/ha [1, 5] was 85 to 94%. For the same molecule, the pest or weed control at 70 g/ha [1, 6] was 95 to 100%, the pest or weed control at 140 g/ha [1, 6] was 95 to 100% and the pest or weed control at 70 g/ha [1, 7] was 95 to 100%. For the same molecule, the pest or weed control at 140 g/ha [1, 7] was 95 to 100%, the pest or weed control at 70 g/ha [1, 8] was 85 to 94% and the pest or weed control at 140 g/ha [1, 8] was 95 to 100%. For the same molecule, the pest or weed control at 70 g/ha [1, 9] was 45 to 59%, the pest or weed control at 140 g/ha [1, 9] was 60 to 74% and the melting point was 141.8 to 145 °C. The pest or weed control at 70 g/ha [2, 10] was 85 to 94%, the pest or weed control at 140 g/ha [2, 10] was 95 to 100% and the pest or weed control at 70 g/ha [2, 11] was 30 to 44%. The pest or weed control at 140 g/ha [2, 11] was 45 to 59%, the pest or weed control at 70 g/ha [2, 12] was 85 to 94% and the pest or weed control at 140 g/ha [2, 12] was 85 to 94%. It also gave a pest or weed control at 70 g/ha [2, 13] of 0 to 29%, a pest or weed control at 140 g/ha [2, 13] of 0 to 29% and a pest or weed control at 70 g/ha [2, 14] of 45 to 59%. The pest or weed control at 140 g/ha [2, 14] was 75 to 84%, the pest or weed control at 70 g/ha [2, 15] was 60 to 74% and the pest or weed control at 140 g/ha [2, 15] was 75 to 84%. It also gave a pest or weed control at 70 g/ha [2, 16] of 0 to 29%, a pest or weed control at 140 g/ha [2, 16] of 30 to 44% and a pest or weed control at 70 g/ha [2, 17] of 30 to 44%. It also gave a pest or weed control at 140 g/ha [2, 17] of 60 to 74%.
